In PubChem BioAssay (NCI):
Several values for one entry are separate records, joined by “and”; a condition that tells them apart may be missing. Equal entries are not always repeated.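 These data come from cells grown in 96-well plates and exposed to compound for 48 hours at five concentrations. Abbreviation: GI50, concentration required for 50% inhibition of growth. TGI: concentration producing complete growth inhibition.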

What was measured:
Experiment in all cases: NCI tumour cell line growth inhibition, 48 h
[1] = tested on: NCI-H460 lung
[2] = tested on: SNB-75 CNS
[3] = tested on: SF-295 CNS
[4] = tested on: TK-10 renal
[5] = tested on: SN12C renal
[6] = tested on: A498 renal
[7] = tested on: SNB-19 CNS
[8] = tested on: A549 NSCLC
[9] = tested on: CAKI-1 renal
[10] = tested on: NCI-H522 lung

| SMILES | TGI [1] | TGI [2] | TGI [3] | TGI [4] | TGI [5] | TGI [6] | TGI [7] | TGI [8] | TGI [9] | TGI [10] | GI50 [1] | GI50 [5] | GI50 [8] |
| --- | --- | --- | --- | --- | --- | --- | --- | --- | --- | --- | --- | --- | --- |
| Cc1[nH]c(=O)nc(NNCc2ccc(Cl)cc2)c1C(=O)Nc1ccc(Cl)cc1 | > 100 µM | > 100 µM | > 100 µM | > 100 µM | > 100 µM | > 100 µM | > 100 µM | > 100 µM | > 100 µM | – | – | – | – |
| CN1CC2CN(Cc3ccccc3)CCN2c2cccnc21 (stereo not drawn) | > 100 µM | > 100 µM | > 100 µM | > 100 µM | – | > 100 µM | > 100 µM | > 100 µM | > 100 µM | > 100 µM | – | – | – |
| CC(Oc1ccc(OCC2CCCCC2)cc1)C(=O)NCc1ccco1 (stereo not drawn) | > 100 µM | > 100 µM | – | > 100 µM | > 100 µM | 86.7 µM | > 100 µM | > 100 µM | – | 35.3 µM | – | – | – |
| O=C(c1ccc(Cl)cc1)N(C(=S)OCCOc1ccccc1)c1ccccc1 | 62.7 µM | – | 94 µM | > 100 µM | 39.3 µM | 48 µM | 42.8 µM | 39.3 µM | 41.2 µM | 43.7 µM | – | – | – |
| CNc1nc(C(N)=O)c(N)s1 | > 100 µM | – | > 100 µM | > 100 µM | > 100 µM | > 100 µM | > 100 µM | > 100 µM | > 100 µM | > 100 µM | – | – | – |
| C=C1C[C@H](O)[C@H](Br)C(C)(C)C12CCC(C)(Cl)C(Br)C2 (stereo partly drawn) | 9.95 µM | 11.2 µM | 8.13 µM | 13.1 µM | 14.8 µM | – | 10.4 µM | 9.12 µM | 24.5 µM | 15 µM | – | – | – |
| COc1ccc(-c2oc3c(OC)c(OC)cc(O)c3c(=O)c2OC)cc1 | > 100 µM | – | > 100 µM | > 100 µM | > 100 µM | > 100 µM | > 100 µM | > 100 µM | > 100 µM | > 100 µM | – | – | – |
| COc1ccc(-c2c(C#N)c(S)n(NS(=O)(=O)c3ccccc3)c(=O)c2C#N)cc1 | > 100 µM | > 100 µM | > 100 µM | > 100 µM | > 100 µM | – | > 100 µM | > 100 µM | > 100 µM | 73 µM | – | – | – |
| O=c1cc(-c2cccnc2)[nH]c2cc3c(cc12)OCO3 | > 100 µM | 27.1 µM | > 38.5 µM | > 100 µM | > 100 µM | > 69.9 µM | 79.6 µM | > 100 µM | – | > 21.6 µM | – | – | – |
| CC(=O)Oc1ccc2c3c1O[C@H]1[C@H](O)CC[C@@]4(O)[C@@H](C2)N(C)CC[C@]314 | – | – | > 100 µM | > 100 µM | > 100 µM | > 100 µM | > 100 µM | > 100 µM | > 100 µM | > 100 µM | – | – | – |
| O=c1oc2c(Cl)cc(Cl)cc2cc1C1=CSC2=NCCN12 | > 100 µM | > 100 µM | > 100 µM | > 100 µM | > 100 µM | – | > 100 µM | > 100 µM | > 100 µM | – | – | – | – |
| COc1cc(C2c3cc4c(cc3[C@@H](NCCN3CCOCC3)C3COC(=O)[C@H]23)OCO4)cc(OC)c1O (stereo partly drawn) | 1.26 µM and 2.4 µM | 1.8 µM and 11.6 µM | 13.5 µM and 17.4 µM | 21.7 µM and > 17.5 µM | 4.06 µM and 7.9 µM | – | > 75 µM | 2.64 µM and 4.28 µM | > 75 µM | 13.1 µM and 9.66 µM | 0.051 µM and 0.174 µM | 0.764 µM and 2.13 µM | 0.314 µM and 0.761 µM |
| CCOC(=O)NN(C(=O)OCC)c1c(C)cc(C)cc1C | > 100 µM | > 100 µM | – | > 100 µM | > 100 µM | > 100 µM | > 100 µM | > 100 µM | > 100 µM | > 100 µM | – | – | – |
| CCOC(=O)c1nnc2c(C#N)c(-c3ccccc3)c(C)n2c1N | > 100 µM | – | > 100 µM | > 100 µM | > 100 µM | 79.4 µM | 89.2 µM | > 100 µM | > 100 µM | 70.5 µM | – | – | – |
| CNC1(C(=O)O)CC1 | > 100 µM | – | > 100 µM | > 100 µM | > 100 µM | > 100 µM | > 100 µM | > 100 µM | – | > 100 µM | – | – | – |
| Cc1ccc(N/C(SCc2ccccc2)=C(\C(Cl)=C(Cl)Cl)[N+](=O)[O-])c(C)c1 | > 100 µM | 85.9 µM | 94.9 µM | – | 43.8 µM | 74.1 µM | > 100 µM | 90.6 µM | 50.8 µM | – | – | – | – |
| CCOC(=O)c1nc2ccc(C(F)(F)F)cc2nc1Oc1ccc(C(=O)OC)cc1 | > 100 µM | > 100 µM | > 100 µM | > 100 µM | – | > 100 µM | > 100 µM | – | > 100 µM | – | – | – | – |
| OC1CSc2nc3ccccc3n2C1 (stereo not drawn) | > 100 µM | 44.8 µM | > 100 µM | > 100 µM | > 100 µM | > 100 µM | > 100 µM | > 100 µM | > 100 µM | – | – | – | – |
| Nc1nc(-c2ccco2)cc(-c2ccc(CO)o2)n1 | > 100 µM | > 100 µM | > 100 µM | > 100 µM | > 100 µM | – | > 100 µM | > 100 µM | – | > 100 µM | – | – | – |
| CSc1nc2c(c(=O)[nH]1)N=C(c1ccccc1)CC(c1ccccc1)N2 (stereo not drawn) | 27.2 µM | 44.6 µM | > 100 µM | – | 56.6 µM | > 100 µM | > 100 µM | > 100 µM | > 100 µM | 43.9 µM | – | – | – |
| Cc1ccc2c(/C=C/c3ccc(N(C)C)cc3)ccc(C(C)C)cc1-2 | – | > 100 µM | > 100 µM | > 100 µM | > 100 µM | > 100 µM | – | > 100 µM | > 100 µM | > 100 µM | – | – | – |
| COc1ccc(/C=C2\C[C@H]3[C@@H]4CCC5=CC(=O)CC[C@]5(C)[C@H]4CC[C@]3(C)C2=O)cc1OC | > 100 µM | > 100 µM | > 100 µM | – | > 100 µM | > 100 µM | > 100 µM | > 100 µM | > 100 µM | 9.87 µM | – | – | – |
| COc1cccc(/C=C2\S/C(=N/Nc3nc(-c4ccc([N+](=O)[O-])cc4)cs3)NC2=O)c1O | 42 µM | – | 38.7 µM | 67.6 µM | 50.5 µM | 50.9 µM | 52.9 µM | 39.6 µM | 71.1 µM | – | – | – | – |
| Cc1ccc(N(C)S(=O)(=O)c2ccccc2[N+](=O)[O-])cc1 | > 100 µM | – | > 100 µM | > 100 µM | > 100 µM | – | > 100 µM | > 100 µM | > 100 µM | 94.6 µM | – | – | – |
